Measurements as given in patent US11071738B2, “Therapeutic agent for fatty liver diseases and therapeutic agent for adiposity” (Hiroshima University, priority 2017, dated 2021).

Legend:
Pin1 = target: T1, Pin1 (Homo sapiens, UniProt Q13526); experiment: Cell-based Pin1 inhibition assay with AMPK phosphorylation level as index; design: key to Pin1 inhibition activity: +++: a higher level of AMPK phosphorylation is promoted, as compared with C1; ++: a similar level of AMPK phosphorylation is promoted, as compared with C1; +: a lower level of AMPK phosphorylation is promoted, as compared with C1; −: no or almost no promotion is found in AMPK phosphorylation; conditions: 293T cells, compound at 100 μM, 10 mM 2-DG, pAMPK blot compared with C1
T1 construct: endogenous in cells; host or cells: 293T cells
T1 sequence (Q13526 whole entry): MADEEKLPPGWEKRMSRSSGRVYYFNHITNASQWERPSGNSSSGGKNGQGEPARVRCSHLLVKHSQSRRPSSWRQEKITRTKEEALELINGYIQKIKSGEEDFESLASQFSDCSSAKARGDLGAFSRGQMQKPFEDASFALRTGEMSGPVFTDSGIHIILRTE
Description: To evaluate the inhibitory activity of each synthesized compound against the function of Pin1, a cell-based assay was performed according to the method previously developed by the inventors (Yusuke Nakatsu et al., Journal of Biological Chemistry, 2015, Vol. 290, No. 40, pp. 24255-24266), in which the phosphorylation level of AMPK (AMP-activated protein kinase), a protein whose phosphorylation is inhibited by Pin1, was examined as an index.
Briefly, 293T cells were plated on a collagen-coated 24-well plate. Forty-eight hours later, each compound synthesized in the preceding example (at 100 μM) was added to the plate, and the plate was left to stand in an incubator for 30 minutes. Subsequently, 10 mM 2-DG was added to the plate, and one hour later, each sample was collected with a buffer containing mercaptoethanol and SDS.
SDS-PAGE and blotting were performed, and blocking was then performed with 3% BSA for 1 hour, according to conventional protocols. Subsequently, a pAMPK antibody (Cell Signaling; diluted 1:2000 in Can Get Signal Solution 1, Toyobo) as a primary antibody, and an HRP-linked anti rabbit IgG (GE Healthcare; diluted 1:4000 in Can Get Signal Solution 2, Toyobo) as a secondary antibody were allowed to react at ambient temperature for 1 hour prior to detection.
The inhibitory activity against the function of Pin1 was evaluated by comparing the inhibition levels between each compound and a known Pin1 inhibitor, C1, as indicated below: […]

NASH model mice (HFDT) = system: NASH model mice (HFDT)
Description: Animal experiments were performed using non-alcoholic steatohepatitis (NASH) model mice to test the compounds synthesized in Examples for the therapeutic effect on NASH.
NASH model mice (hereinafter referred to as “NASH mice”) were produced by feeding a high-fat diet containing trans fatty acids (HFDT) to individual male laboratory mice (C57BL/6J) for 8 weeks. […] In addition, a normal diet was given to individual male laboratory mice (C57BL/6J) for 8 weeks to prepare control mice.

NASH mice (MCDD) = experiment: NASH treatment study in mice fed a methionine-choline-deficient diet (MCDD); type: in vivo, mice (C57BL/6J); conditions: NASH mice given MCDD, i.p. 2.5 mg/kg/day three times a week
Description: Next, an animal experiment was performed on NASH mice that were produced by feeding a methionine-choline-deficient diet (MCDD).

[1] = HFDT NASH mice, 8 weeks, i.p. 2.5 mg/kg/day or oral 5.0 mg/kg/day three times a week

## O=C(O)[C@@H](Cc1ccc2ccccc2c1)NC(=O)n1c2ccccc2c2ccccc21 [Compound H-163]
Pin1
  Pin1 inhibition activity: ++
NASH model mice (HFDT); [1]
  blood ALT (GPT) value, index of liver inflammation: decreased
  fasting blood glucose level: no significant abnormality
  increase in liver weight: significantly reduced
NASH model mice (HFDT); NASH mice given HFDT
  fat accumulation in liver tissue (microscopic observation): significantly reduced
NASH mice (MCDD); 8 weeks
  fat accumulation in liver tissue (microscopic observation): reduced
  hepatic fibrosis (Azan staining): significantly inhibited
NASH mice (MCDD)
  Collagen 1a1 mRNA expression level: reduced
  Collagen 1a2 mRNA expression level: reduced
  SMA mRNA expression level: reduced
